# Laboratory results: patent US20250059164A1, “IRAK DEGRADERS AND USES THEREOF” (Kymera Therapeutics, Inc., priority 2023, published 2025)
# Molecular target: T1, IRAK4 (Homo sapiens, UniProt Q9NWZ3)
# T1 construct: endogenous in cells; host or cells: OCI-LY10
# T1 sequence (Q9NWZ3 1-460): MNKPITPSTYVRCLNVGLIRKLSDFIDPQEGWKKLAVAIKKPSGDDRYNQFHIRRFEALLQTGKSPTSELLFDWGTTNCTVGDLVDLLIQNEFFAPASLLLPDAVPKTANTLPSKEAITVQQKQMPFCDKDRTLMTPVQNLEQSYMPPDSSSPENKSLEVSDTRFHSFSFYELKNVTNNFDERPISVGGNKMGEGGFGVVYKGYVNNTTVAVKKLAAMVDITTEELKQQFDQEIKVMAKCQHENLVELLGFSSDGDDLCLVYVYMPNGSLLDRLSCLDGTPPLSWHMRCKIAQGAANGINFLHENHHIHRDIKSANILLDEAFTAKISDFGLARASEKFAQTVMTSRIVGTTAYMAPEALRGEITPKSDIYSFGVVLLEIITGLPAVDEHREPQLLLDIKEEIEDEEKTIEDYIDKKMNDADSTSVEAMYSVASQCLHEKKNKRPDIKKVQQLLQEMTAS
# Assay: IRAK4 MSD degradation in OCI-LY10
# Format: cell-based
# Details: OCI-LY10 cells, 24 hrs, Meso Scale Discovery
# Protocol: Degradation of IRAK4 in OCI-LY10 was quantitatively measured using Meso Scale Discovery technology. […] Compounds were then added to the assay plates with a final top concentration of 1 to 10 μM in a 1:3 dilution series with total of 8 doses. The assay plates were then incubated for 4 to 24 hours at 37° C. under 5% CO2. […] To prepare MSD assay plates (Meso Scale Discovery Catalog number L15XA-3), the plates were coated with 2 μg/mL capture antibody (mouse Anti-IRAK4 antibody [2H9], ab119942) in PBS, at 40 μL/well. […] Cell lysates were then added to MSD assay plates and the plates were incubated at room temperature for 1 hour. The plates were then washed 3 times with 150 μL/well TBST buffer and 25 μL/well primary detection antibody (rabbit Anti-IRAK4 antibody [Y279], from Abcam. Catalog number ab32511, 1 μg/mL). The assay plates were then incubated at room temperature for 1 hour, washed 3 times with 150 μL/well TBST buffer and 25 μL/well secondary detection antibody, SULFO-TAG anti-rabbit antibody were added (anti-rabbit antibody from Meso Scale Discovery, Catalog number R32AB-1, 1 μg/mL). The assay plates were then incubated at room temperature for 1 hour, washed 3 times with 150 μL/well TBST buffer, and 150 μL/well MSD reading buffer (Meso Scale Discovery catalog number R92TC-2) was added. The plates were then analyzed by a MSD reader (Meso Scale Discovery, Model Quick Plex SQ 120). The data was then analyzed by software Prism 7.0 from GraphPad and the dose-depended IRAK4 degradation were fit using a three-parameter logistic equation to calculate DC50.
# The letter codes for IRAK4 DC50 include: A (<0.01 μM); B (0.01 to <0.1 μM); C (0.1 to 0.2 μM); D (>0.2 μM) and E (not tested).
row,DC50 [nM],SMILES
1,10 to 100,Cn1c(=O)n(C2CCC(=O)NC2=O)c2cccc(N3CC(COC[C@H]4CC[C@H](n5cc6cc(NC(=O)c7cccc(C(F)(F)F)c7)ccc6n5)CC4)C3)c21 (some centres unmarked) [I-126]
2,< 10,CN(C[C@H]1CC[C@H](n2cc(NC(=O)c3cnn4ccc(N5CCCC5)nc34)c(C(F)F)c2)CC1)[C@@H]1CCN(c2cccc3c2n(C)c(=O)n3C2CCC(=O)NC2=O)C[C@@H]1F (some centres unmarked) [I-23]
3,< 10,O=C1CCN(c2cncc3c(N4CC(CN5CCN(C[C@H]6CC[C@H](n7cc(NC(=O)c8cnn9ccc(N%10C[C@H]%11C[C@@H]%10CO%11)nc89)c(C(F)F)n7)CC6)CC5)C4)cccc23)C(=O)N1 [I-74]
4,> 200,COc1cc(C(=O)Nc2ccc3nn([C@H]4CC[C@H](CN5CC[C@@H](c6cccc7c6n(C)c(=O)n7C6CCC(=O)NC6=O)C(F)(F)C5)CC4)cc3c2)nc(C(F)(F)F)c1 (some centres unmarked) [I-401]
5,< 10,C[C@H]1CN(c2ccn3ncc(C(=O)Nc4cn([C@H]5CC[C@H](CN(C)[C@H]6CCN(c7cccc8c7n(C)c(=O)n8C7CCC(=O)NC7=O)C[C@H]6F)CC5)nc4C(F)F)c3n2)CCO1 (some centres unmarked) [I-51]
6,< 10,COc1ccc2c(c1N1CCC3(CCN(C[C@H]4CC[C@H](n5cc6cc(NC(=O)c7cncc(C#N)c7)c(C(C)(C)O)cc6n5)CC4)CC3(F)F)CC1)n(C)c(=O)n2C1CCC(=O)NC1=O (some centres unmarked) [I-397]
7,< 10,CN(C[C@H]1CC[C@H](n2cc3cc(NC(=O)c4cccc(C(F)(F)F)n4)c(C(C)(C)O)cc3n2)CC1)[C@@H]1CCN(c2cccc3c2n(C)c(=O)n3C2CCC(=O)NC2=O)C[C@H]1F (some centres unmarked) [I-2]
8,< 10,"Cn1c(=O)n([C@@H]2CCC(=O)NC2=O)c2cccc(N3CCC4(CCN(C[C@H]5CC[C@H](n6cc7cc(NC(=O)c8cncc(C#N)c8)c(C(C)(C)O)cc7n6)CC5)CC4(F)F)CC3)c21 (single isomer, unassigned) [I-224]"
9,10 to 100,CN(C[C@H]1CC[C@H](n2cc(NC(=O)c3cnn4cccnc34)c(C(F)F)n2)CC1)[C@H]1CCN(c2cccc3c2n(C)c(=O)n3C2CCC(=O)NC2=O)CC1(F)F (some centres unmarked) [I-203]
10,< 10,CN(C[C@H]1CC[C@H](n2cc3cc(NC(=O)c4cccc(C(F)(F)F)n4)ccc3n2)CC1)C1CCN(c2cccc3c2n(C)c(=O)n3C2CCC(=O)NC2=O)C[C@@H]1F (some centres unmarked) [I-32]
11,10 to 100,"COc1cc2nc([C@H]3CC[C@H](CN(C)[C@@H]4CCN(c5cccc6c5n(C)c(=O)n6C5CCC(=O)NC5=O)C[C@H]4F)CC3)sc2cc1NC(=O)c1cccc(C(F)(F)F)n1 (single isomer, unassigned) [I-98]"
12,< 10,"COc1cc2nn([C@H]3CC[C@H](CN4CC[C@H](c5cccc6c5n(C)c(=O)n6C5CCC(=O)NC5=O)[C@@H](F)C4)CC3)cc2cc1NC(=O)c1cncc(C#N)c1 (single isomer, unassigned) [I-100]"

# The next lines start with the compound.
row,SMILES,DC50 [nM]
1,O=C1CCN(c2cncc3c(N4CC(CO[C@@H]5CCN(C[C@H]6CC[C@H](n7cc(NC(=O)c8cnn9ccc(N%10C[C@H]%11C[C@@H]%10CO%11)nc89)c(C(F)F)n7)CC6)C[C@@H]5F)C4)cccc23)C(=O)N1 [I-120],< 10
2,COc1cn2nc([C@H]3CC[C@H](CN(C)[C@H]4CCN(c5cccc6c5n(C)c(=O)n6C5CCC(=O)NC5=O)C[C@@H]4F)CC3)cc2cc1NC(=O)c1cncc(C(F)(F)F)n1 (some centres unmarked) [I-301],< 10
3,"Cn1c(=O)n(C2CCC(=O)NC2=O)c2cccc([C@@H]3CCN(C[C@H]4CC[C@H](n5cc6cc(NC(=O)c7cccc(C(F)(F)F)n7)c(C#N)cc6n5)CC4)C[C@H]3F)c21 (single isomer, unassigned) [I-95]",< 10
4,Cn1c(=O)n(C2CCC(=O)NC2=O)c2cccc([C@H]3CCN(C[C@H]4CC[C@H](n5cc6cc(NC(=O)c7cccc(C(F)(F)F)n7)c(C(C)(C)O)cc6n5)CC4)C[C@@H]3F)c21 (some centres unmarked) [I-63],< 10
5,O=C1CCC(Nc2ccc(N3CC(O)(CN4CCN(C[C@H]5CC[C@H](n6cc(NC(=O)c7cnn8ccc(N9C[C@H]%10C[C@@H]9CO%10)nc78)c(C(F)F)n6)CC5)CC4)C3)cc2)C(=O)N1 (some centres unmarked) [I-72],10 to 100
6,"Cn1c(=O)n([C@H]2CCC(=O)NC2=O)c2ccc(F)c([C@@H]3CCN(C[C@H]4CC[C@H](n5cc6cc(NC(=O)c7cncc(C#N)c7)c(C(C)(C)O)cc6n5)CC4)CC3(F)F)c21 (single isomer, unassigned) [I-232]",< 10
7,Cc1nn(C2CCC(=O)NC2=O)c2cc(F)cc(N3CC(CN4CCN(C[C@H]5CC[C@H](n6cc(NC(=O)c7cnn8ccc(N9C[C@H]%10C[C@@H]9CO%10)nc78)c(C(F)F)n6)CC5)CC4)C3)c12 (some centres unmarked) [I-92],< 10
8,COc1cc2nn([C@H]3CC[C@H](CN4CCC5(CCN(c6cccc7c6n(C)c(=O)n7C6CCC(=O)NC6=O)CC5)C(F)(F)C4)CC3)cc2cc1NC(=O)c1cccc(C(F)(F)F)c1 (some centres unmarked) [I-151],10 to 100
9,"Cn1nc([C@@H]2CCC(=O)NC2=O)c2cccc([C@@H]3CCN(C[C@H]4CC[C@H](n5cc6cc(NC(=O)c7cncc(C#N)c7)c(C(C)(C)O)cc6n5)CC4)CC3(F)F)c21 (single isomer, unassigned) [I-230]",< 10
10,"COc1ccc2c(c1N1CC[C@H](N(C)C[C@H]3CC[C@H](n4cc(NC(=O)c5cnn6cccnc56)c(C(F)F)n4)CC3)[C@H](F)C1)n(C)c(=O)n2C1CCC(=O)NC1=O (single isomer, unassigned) [I-147]",< 10
11,"O=C1CCN(c2cncc3c(N4CC(CO[C@H]5CCN(C[C@H]6CC[C@H](n7cc(NC(=O)c8cnn9ccc(N%10C[C@H]%11C[C@@H]%10CO%11)nc89)c(C(F)F)n7)CC6)C[C@@H]5F)C4)cccc23)C(=O)N1 (single isomer, unassigned) [I-75]",10 to 100
12,Cn1c(=O)n(C2CCC(=O)NC2=O)c2cccc([C@@H]3CCN(C[C@H]4CC[C@H](n5cc6cc(NC(=O)c7cnnc(C(F)(F)F)c7)ccc6n5)CC4)C[C@H]3F)c21 (some centres unmarked) [I-316],> 200
13,"CN(C[C@H]1CC[C@H](c2cc3cc(NC(=O)c4cncc(C(F)(F)F)n4)ccn3n2)CC1)[C@@H]1CCN(c2cccc3c2n(C)c(=O)n3C2CCC(=O)NC2=O)C[C@@H]1F (single isomer, unassigned) [I-211]",> 200
14,"CN(C[C@H]1CC[C@H](c2cc3cc(NC(=O)c4cncc(C(F)(F)F)n4)ccn3n2)CC1)[C@@H]1CCN(c2cccc3c2n(C)c(=O)n3C2CCC(=O)NC2=O)C[C@H]1F (single isomer, unassigned) [I-291]",> 200
15,"Cn1c(=O)n(C2CCC(=O)NC2=O)c2cccc([C@H]3CCN(C[C@H]4CC[C@H](n5cc6cc(NC(=O)c7cccc(C(F)(F)F)n7)c(C#N)cc6n5)CC4)C[C@@H]3F)c21 (single isomer, unassigned) [I-96]",< 10
16,Cc1nn(C2CCC(=O)NC2=O)c2cccc(N3CCN(C[C@@H]4COC5(C4)CN(C[C@H]4CC[C@H](n6cc(NC(=O)c7cnn8ccc(N9C[C@H]%10C[C@@H]9CO%10)nc78)c(C(F)F)n6)CC4)C5)CC3)c12 (some centres unmarked) [I-42],< 10
17,"O=C1CCC(Nc2ccc(N3CC(CO[C@H]4CCN(C[C@H]5CC[C@H](n6cc(NC(=O)c7cnn8ccc(N9C[C@H]%10C[C@@H]9CO%10)nc78)c(C(F)F)n6)CC5)C[C@@H]4F)C3)cc2)C(=O)N1 (single isomer, unassigned) [I-85]",10 to 100
18,O=C1CCC(Nc2cccc(N3CC(CO[C@H]4CCN(C[C@H]5CC[C@H](n6cc(NC(=O)c7cnn8ccc(N9C[C@H]%10C[C@@H]9CO%10)nc78)c(C(F)F)n6)CC5)C[C@@H]4F)C3)c2)C(=O)N1 (some centres unmarked) [I-1],100 to 200
19,"Cn1c(=O)n([C@H]2CCC(=O)NC2=O)c2cccc([C@@H]3CCN(C[C@H]4CC[C@H](n5cc6cc(NC(=O)c7cncc(C(F)(F)F)n7)ccc6n5)CC4)CC3(F)F)c21 (single isomer, unassigned) [I-385]",< 10
20,Cn1nc(N2CCC(=O)NC2=O)c2cccc(N3CC(CN4CCN(C[C@H]5CC[C@H](n6cc(NC(=O)c7cnn8ccc(N9C[C@H]%10C[C@@H]9CO%10)nc78)c(C(F)F)n6)CC5)CC4)C3)c21 [I-91],10 to 100
21,CN(C[C@H]1CC[C@H](c2nc3cc(C(C)(C)O)c(NC(=O)c4cccc(C(F)(F)F)n4)cc3s2)CC1)[C@H]1CCN(c2cccc3c2n(C)c(=O)n3C2CCC(=O)NC2=O)C[C@H]1F (some centres unmarked) [I-105],< 10
22,Cn1c(=O)n(C2CCC(=O)NC2=O)c2cccc(N3CCN(C[C@H]4CC[C@H](n5cc6cc(NC(=O)c7cncc(C(F)(F)F)n7)ccc6n5)CC4)CC3=O)c21 (some centres unmarked) [I-350],< 10
23,Cc1nn(C2CCC(=O)NC2=O)c2cccc(N3CC(N4CCN([C@H]5CC[C@@H](n6cc(NC(=O)c7cnn8ccc(N9C[C@H]%10C[C@@H]9CO%10)nc78)c(C(F)F)n6)CC5)CC4)C3)c12 (some centres unmarked) [I-57],> 200
